The values below come from US20110319640A1, “LARGE-SCALE PURIFICATION OF 2-PYRONE-4,6-DICARBOXYLIC ACID” (KABUSHIKI KAISHA TOYOTA JIDOSHOKKI, priority 2007, published 2011).

A short description of the data set: water solubility of PDC and PDC complex salts (FIG. 2). The class given is physicochemical. As to conditions: in water; free compound. From the text:
Hereinafter, a complex salt formed centering on the Carbonyl group of PDC may be referred to as “a PDC complex salt,” in order to distinguish from a complex salt described in the section of salts of cations. The structure of a […] complex salt is described in many references (for example, Acta. Cryst. (1992) C48, 460-465).

Turning to `O=C(O)c1cc(C(=O)O)oc(=O)c1` [free PDC, 2-pyrone-4,6-dicarboxylic acid], the water solubility amounted to 182 mM.
